Test results reported in US12060356B2, “7 (methylamino)pyrazolo[1,5-a]pyrimidine-3-carboxamide derivatives” (Eli Lilly and Company, priority 2018, dated 2024).

Columns and labels:
[1] = test system: IFNα signaling through pSTAT1 in TF1 cells; assay: Inhibition of IFNα Signaling Through pSTAT1 in TF1 Cells; type: cell-based; conditions: Homo sapiens, TF-1, 1 hr preincubation, 10 ng/mL IFNα2 for 20 minutes, p-Stat1 (Tyr701) AlphaLISA, GeoMetric mean (SEM, n)
Procedure: TF1 cells (ATCC, CL-2003) are grown in RPMI 1640 (GIBCO) supplemented with 10% dialyzed FBS, 0.1 mg/mL Ampicillin and 2 ng/mL granulocyte macrophage colony stimulating factor. TF1 cells (100 K per well) are seeded in a 96-well poly-D-lysine coated plates in serum-free DMEM and incubated overnight at 37° C. under 5% CO2. Example 1 is serially diluted in DMSO, added to the cells, and incubated at 37° C. for 1 hr. Cells are then stimulated with 10 ng/mL IFNα2 at 37° C. for 20 minutes. After removing the medium, the cells are lysed in buffer containing Halt protease and phosphatase inhibitor cocktail (Thermo Scientific #78441) at room temperature for 30 minutes. The amount of p-Stat1 (Tyr701) is quantified as light emission at 615 nm using the AlphaLISA SureFire Ultra p-Stat1 (Tyr701) assay kit (Perkin Elmer #ALSU-PST1-A50K) following the vendor's recommended protocol. Percent inhibition at each inhibitor concentration is calculated and fit to the four parameter nonlinear logistic equation using Genedata Screener® to give an IC50 for the compound of Example 1 of 0.007 μM (0.002 μM, n=4) and for the compound of Example 2 of 0.100 μM (0.014 μM, n=4) expressed as GeoMetric means with the standard error of the mean (SEM).

[2] = test system: IL-23 signaling (STAT3 phosphorylation) in Kit225 cells; assay: IL23 pSTAT3 AlphaLISA Assay; type: cell-based; conditions: 1 hour preincubation, IL23 25 ng/mL for 30 minutes, GeoMetric mean (SEM, n), read-out: relative IC50
Procedure: IL2-dependent Kit225 cells (University of Texas MD Anderson Cancer Center) expressing endogenous IL23 receptors are stably transduced with the Lenti STAT3 Reporter linked to firefly luciferase (SABiosciences CLS-6028L). These cells are used to monitor TYK2 activity by quantifying gene expression caused by STAT3 phosporylation following induction by IL23 in the presence of IL2 using AlphaLISA technology (TGR Biosciences ALSU-TST3-A50K). The cells are grown in RPMI 1640 (Gibco 22400) supplemented with 10% FBS (Invitrogen 10082), 1× Pen/Strep (Gibco 15140-122), 200 ng/ml Puromycin (Sigma P9620), and fresh 10 ng/ml recombinant human IL2 (R&D Systems 202-IL-50).
For assay preparation, cells are dispensed into Biocoat black poly-d-lysine coated clear bottom 384-well plates (Becton Dickinson Bio-Coat 35-4640) in DMEM (Sigma D5796) at 300,000 cells/well and allowed to incubate overnight at 37° C. Compounds solubilized in DMSO are serially diluted 1:3 to produce a 10-point concentration response curve (final DMSO=0.1%). Cells are pre-incubated with Example 1 for 1 hour at 37° C., then stimulated with IL23 (25 ng/mL final) for 30 minutes. […] The AlphaLISA reaction is performed following the vendor's recommended protocol, and the […] are measured using an Envision plate reader (Perkin Elmer).

[3] = molecular target: T1, pseudokinase domain (JH2) of human TYK2 (Homo sapiens, UniProt P29597); assay: TYK2-JH2 Tracer Binding Assay; conditions: His-tagged TYK2-JH2 0.200 nM, Tracer 2.00 nM, TR-FRET, 30 minutes at room temperature
T1 construct: The pseudokinase domain (JH2) of human JAK; made in house
T1 sequence (P29597 589-875 limits assumed): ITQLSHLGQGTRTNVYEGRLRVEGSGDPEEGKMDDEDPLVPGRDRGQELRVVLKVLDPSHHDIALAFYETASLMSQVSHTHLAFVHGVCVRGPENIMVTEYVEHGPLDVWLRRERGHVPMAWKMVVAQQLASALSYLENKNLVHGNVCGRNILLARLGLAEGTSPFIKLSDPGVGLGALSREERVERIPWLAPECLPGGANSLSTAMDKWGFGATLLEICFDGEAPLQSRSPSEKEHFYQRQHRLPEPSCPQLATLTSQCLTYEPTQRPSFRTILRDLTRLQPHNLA
Source text: The pseudokinase domain (JH2) of human JAK (Janus family of cytoplasmic tyrosine kinases) family tyrosine kinase 2 (TYK2) (Genbank NP_003322) with an N-terminal His6 tag is expressed in baculovirus and purified by HisPur Ni-NTA affinity and Superdex 200 size-exclusion chromatography. The compound prepared in Preparation 17, a conjugate of Alexa Fluor 647 dye (Thermo Fisher Scientific) and a suitable TYK2 JH2 binder, is referred to herein as “the Tracer”. A 3 fold, 10 point serial dilution of compound, Example 1 and Example 2, are prepared in 100% DMSO and 50 nL/well transferred to a Proxiplate-384F white plate (PerkinElmer 6008280) using acoustic liquid handling. Control wells used to determine percent inhibition contained 100% DMSO (50 nL) and either assay buffer containing the Tracer (2.00 nM final concentration) (min, low FRET) or diluted TYK2-JH2 enzyme (0.200 nM final concentration) and the Tracer (2.00 nM final concentration) (max, high FRET). […] After 30 minutes, the plate is counted on a PerkinElmer Envision with the following settings: Excitation (340 nm), Tracer Emission (665 nm) and LanthaScreen Eu-anti-His Antibody Emission (615 nm). The ratio of Tracer Emission (665 nm) over LanthaScreen Eu-anti-His Antibody Emission (615 nm) is determined.

IC50 [1]	IC50 [2]	IC50 [3]	Compound
7 nM	7 nM	< 0.254 nM	CNc1cc(Nc2cccc3c2OCCC3)nc2c(C(=O)N[C@@H]3CCN(C)C3=O)cnn12 [Example 1, 5-(Chroman-8-ylamino)-7-(methylamino)-N-[(3R)-1-methyl-2-oxo-pyrrolidin-3-yl]pyrazolo[1,5-a]pyrimidine-3-carboxamide]
100 nM	66 nM	< 0.254 nM	CNc1cc(Nc2cccc(C)n2)nc2c(C(=O)N[C@@H]3CCN(C)C3=O)cnn12 [Example 2, 7-(Methylamino)-N-[(3R)-1-methyl-2-oxo-pyrrolidin-3-yl]-5-[(6-methyl-2-pyridyl)amino]pyrazolo[1,5-a]pyrimidine-3-carboxamide]
